From patent publication US20220397580A1, “METHOD OF DETECTING A NEURODEGENERATIVE DISEASE” (NATIONAL UNIVERSITY OF SINGAPORE, priority 2019, published 2022)

Tested on: exosomes derived from neuronal cells (SH-SY5Y)
Assay: Exosome-Aβ association kinetics on APEX (SPR) sensor functionalized with protein aggregates
Format: binding, Human
Settings: relative to BSA controls
Experimental: Characterization of exosome-A13 association. The prepared protein aggregates (Aβ42 and BSA control) were used for surface functionalization onto the APEX sensors, via EDC/NHS coupling as previously described. Unbound protein aggregates were washed away with PBS. The amount of protein conjugated was measured from the resultant transmission spectral shifts. This information was used to determine the number of conjugated protein aggregates and their associated total protein surface area for exosome binding (see below for detailed information), so as to normalize for binding affinities. Following surface functionalization with the protein aggregates, exosomes ([…]) were introduced onto the sensors. Spectral changes were measured every 3 s for a total duration of 480 s to construct real-time kinetics sensorgrams. Exosome association kinetics and binding affinities were determined for different-sized protein aggregates.
To account for protein aggregate size differences as well as SPR-associated exponential decay of sensitivity (with increasing distance from the sensing surface), the following equation was used
S=E×∫0^2rπ[r^2−(r−z)^2]×e^(−2z/l^d^)dz […]
All protein aggregates were approximated as spheres, as supported by transmission electron micrographs (FIG. 3b, left) and their r determined from dynamic light scattering analysis. […]

bigger Aβ42 aggregates: Aβ42 protein (rPeptide) incubated with agitation for 1 h to induce further aggregation, filtered through 0.2-μm membrane
KD(small)/KD(big) (exosome binding data normalized to aggregate surface area): 5.27
binding affinity of the vesicles compared to the smaller Aβ42 aggregates (neuron-derived exosomes, normalized to aggregate surface area): > 5 fold
